Results on ten molecules are retold here after publication doi:10.1101/2025.04.16.649181, “Design of peptide-based PAC1 antagonists combining molecular dynamics simulations and a biologically relevant cell-based assay” (bioRxiv, 2025).

No end group written: not given here.

The target in experiment [1] is T1, PAC1 (endogenous, mainly PAC1null, SH-SY5Y) (Homo sapiens, UniProt P41586).
T1 construct: Neuroblastoma SH-SY5Y cells endogenously xpressing hPAC1 and engineered to express CBS; endogenous in cells
T1 sequence (P41586 21-468): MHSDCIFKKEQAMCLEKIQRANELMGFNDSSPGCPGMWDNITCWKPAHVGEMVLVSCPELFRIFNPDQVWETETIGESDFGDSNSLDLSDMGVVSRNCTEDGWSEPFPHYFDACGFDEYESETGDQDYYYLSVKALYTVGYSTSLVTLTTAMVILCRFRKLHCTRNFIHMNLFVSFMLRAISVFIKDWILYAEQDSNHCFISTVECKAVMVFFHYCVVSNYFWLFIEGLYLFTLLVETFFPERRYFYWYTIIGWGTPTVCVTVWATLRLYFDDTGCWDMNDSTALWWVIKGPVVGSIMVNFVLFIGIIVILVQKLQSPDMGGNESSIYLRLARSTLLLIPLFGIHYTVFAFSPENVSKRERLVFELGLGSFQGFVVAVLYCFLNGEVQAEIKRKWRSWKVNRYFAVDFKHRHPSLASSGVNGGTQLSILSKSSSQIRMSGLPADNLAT
Kind of experiment: CBS assay, antagonism of P27-induced cAMP in SY5Y_CBS cells. In kind it is cell-based. The text has this:
(§1) A single clone of the SH-SY5Y cell line stably expressing a cAMP biosensor (SY5Y_CBS) was generated as previously described for HEK293_CBS and NS-1_CBS cells, using the retroviral vector pLHCX containing the cAMP biosensor and a hygromycin resistance gene. A HEK293_CBS_hPAC1 cell clone was generated by transducing HEK293_CBS cells with the lentiviral vector pLX304 (GeneCopoeia, Rockville, MD) encoding the human PAC1hop (PAC1; GenBank accession no. BC143679) and a blasticidin resistance gene . Following transduction, cells were selected with the appropriate antibiotics (hygromycin or blasticidin) for 2 weeks. Single-cell clones were subsequently isolated by limiting dilution and assessed for PACAP-induced cAMP production using concentration-response assays.
(§2) The cyclic AMP biosensor (CBS) assay was performed using Gibco CO2-independent medium (ThermoFisher, catalog #18045-088). HEK293_CBS_hPAC1 or SY5Y_CBS cells were seeded in 96-well black/clear-bottom plates (MidSci, Fenton, MO) at a density of 6,000 cells per well and incubated overnight. The following day, the medium in each well was aspirated and replaced with fresh medium containing 1.5 mg/mL D-luciferin potassium salt substrate (Gold Biotechnology, St. Louis, MO) and 500 μM isobutyl-1-methylxanthine (IBMX), followed by incubation at 37 °C for 1 hour. Cells were then pre-treated with antagonists for 10 minutes before the addition of agonists (PACAP or forskolin). Plates were incubated at 37 °C for 1 hour, then brought to room temperature and equilibrated for 30 minutes. Luminescence was measured using a GloMax plate reader (Promega, Madison, WI).
For the high-throughput CBS screening assays, cells were plated at 2,000 (HEK293_CBS_hPAC1) or 3,000 (SY5Y_CBS) cells per well in […] of Gibco CO2-independent medium, in white 1,536-well tissue culture treated plates. After overnight incubation at 37 °C and 5% CO2, […] of luciferin/IBMX solution was added to the wells (final concentrations of 500 μM each) and plates were incubated at 37 °C for 1 hour. SMOLs (22.5 nL) were transferred to the assay plate, using a pintool device (HEK293 screen) or an ECHO acoustic liquid handler (Beckman Coulter, Brea, CA, SY5Y screen), to final concentrations (4 concentrations per compound) between 0.5 and 30 μM and cells were incubated at 37 °C for 1 hour (HEK293 screen) or 10 minutes (SY5Y screen). […] For forskolin counterscreening in SY5Y cells, forskolin instead of peptide was dispensed to the plate at a final concentration of 5 μM.
(§3) GraphPad Prism ver. 9.0 or 10.0 (GraphPad Software Inc, Boston, MA) was used for data analysis. Concentration response curves were created using a four parameter logistic regression model. EC80 and IC50 parameters were obtained using non-linear regression curve fitting tools. EC80 was calculated as the effective concentration of the agonist required to produce 80% of the maximal response. IC50 was calculated as the concentration of the antagonist that produced 50% of the response induced by an agonist (either PACAP or forskolin) in the absence of the antagonist. Seven or eight different concentrations and three technical replicates per concentration were used for curve fitting. All data are presented as mean ± standard error of the mean (SEM).

Experiment [2] concerns the target T1, PAC1 (endogenous, mainly PAC1null, SH-SY5Y). Kind of experiment: Direct cAMP ELISA, antagonism of P38 in SY5Y_CBS cells. In kind it is cell-based. As to the method:
Direct cAMP determinations were made using the DetectX® Direct Cyclic AMP Enzyme Immunoassay Kit (Arbor Assays, Ann Arbor, MI). SY5Y_CBS cells (200,000 cells per well) or HEK293_CBS cells (10,000 cells per well) were seeded into 96-well plates one day prior to the assay. These cell densities were optimized to ensure agonist responses fell within the linear range of the cAMP standard curve (0.16-10 pmol/mL cAMP). On the day of the assay, the medium was removed and replaced with fresh medium containing 500 μM IBMX. After a 20-minute incubation at 37 °C, antagonists were added and incubated for 10 minutes at 37 °C, followed by the addition of agonists for 30 minutes at 37 °C. Following the final incubation, the medium was aspirated, and cells were lysed with 200 μL of lysis buffer (provided in the kit) for 10 minutes at room temperature. Samples were then snap-frozen and stored at −80 °C overnight and thawed the next day to ensure complete cell lysis. The assay was completed by sequentially adding the cAMP peroxidase conjugate, anti-cAMP sheep antibody, substrate, and stop solution, according to the manufacturer’s instructions. Optical density was measured at 450 nm using a microplate spectrophotometer (Molecular Devices, San Jose, CA). Standard curves and data analysis were performed using GraphPad Prism with a sigmoidal four-parameter nonlinear regression model. Experiments conducted on different days with independently plated and assayed cells were considered biological replicates. Each experiment included three technical replicates.
as §3

For experiment [3] the target is unchanged. The experiment can be described thus: CBS assay, antagonism of P38-induced cAMP in SY5Y_CBS cells. In kind it is cell-based.
Text: as §1, §2, §3

The subject of another experiment is human PAC1hop (hPAC1). Kind of experiment: cAMP biosensor (CBS) assay, agonist responses in HEK293_CBS_hPAC1. In kind it is cell-based. The settings on record: HEK293_CBS_hPAC1, IBMX pretreated, luminescence.
Text: as §1, §2
GraphPad Prism ver. 9.0 or 10.0 (GraphPad Software Inc, Boston, MA) was used for data analysis. Concentration response curves were created using a four parameter logistic regression model. EC80 and IC50 parameters were obtained using non-linear regression curve fitting tools. EC80 was calculated as the effective concentration of the agonist required to produce 80% of the maximal response. […]

For experiment [4], the target named is PAC1 endogenously expressed in SH-SY5Y cells (human (endogenous in SH-SY5Y)) (UniProt P41586).
Experiment [5] has the same target. This is another data set of the same source.
Experiment [6] concerns the target T1, PAC1 (endogenous, mainly PAC1null, SH-SY5Y). Kind of experiment: CBS assay, agonist potency in SY5Y_CBS cells. The experiment is classed as cell-based.
Text: A single clone of the SH-SY5Y cell line stably expressing a cAMP biosensor (SY5Y_CBS) was generated as previously described for HEK293_CBS and NS-1_CBS cells [30], using the retroviral vector pLHCX containing the cAMP biosensor and a hygromycin resistance gene. […] Following transduction, cells were selected with the appropriate antibiotics (hygromycin or blasticidin) for 2 weeks. Single-cell clones were subsequently isolated by limiting dilution and assessed for PACAP-induced cAMP production using concentration-response assays.
Another experiment concerns HEK293_CBS cells. Kind of experiment: cAMP biosensor (CBS) assay, agonist responses in parental HEK293_CBS. The experiment is classed as cell-based.
Setting [7] is: 1 nM P38, average of two independent experiments, read-out: IC50 Average in ELISA assay.
Where [8] appears, read: 1 nM P38, range of two independent experiments, read-out: IC50 Range in ELISA assay.
Where [9] appears, read: 0.2 nM P38 (EC80), SY5Y_CBS, mean ± SEM, three independent experiments, Figure 11B, read-out: IC50 of P6-38 C-terminal mutants in CBS assay.

As for `CSCC[C@H](NC(=O)[C@H](CCC(N)=O)NC(=O)[C@H](CCCCN)NC(=O)[C@H](CCCNC(=N)N)NC(=O)[C@H](Cc1ccc(O)cc1)NC(=O)[C@H](CCCNC(=N)N)NC(=O)[C@H](CO)NC(=O)[C@H](Cc1ccc(O)cc1)NC(=O)[C@H](CO)NC(=O)[C@H](CC(=O)O)NC(=O)[C@@H](NC(=O)[C@@H](N)Cc1ccccc1)[C@@H](C)O)C(=O)N[C@@H](C)C(=O)N[C@H](C(=O)N[C@@H](CCCCN)C(=O)N[C@@H](CCCCN)C(=O)N[C@@H](Cc1ccc(O)cc1)C(=O)N[C@@H](CC(C)C)C(=O)N[C@@H](C)C(=O)N[C@@H](C)C(=O)N[C@H](C(=O)N[C@@H](CC(C)C)C(=O)NCC(=O)N[C@@H](CCCCN)C(=O)N[C@@H](CCCNC(=N)N)C(=O)N[C@@H](Cc1ccc(O)cc1)C(=O)N[C@@H](CCCCN)C(=O)N[C@@H](CCC(N)=O)C(=O)N[C@@H](CCCNC(=N)N)C(=O)N[C@H](C(=O)N[C@@H](CCCCN)C(=O)N[C@@H](CC(N)=O)C(=O)N[C@@H](CCCCN)C(N)=O)C(C)C)C(C)C)C(C)C` [P6-38, reference compound], the IC50 is about 20 nM in experiment [1] (IC50 against P27 (estimated from Figure 5B), 0.2 nM P27 (EC80), SY5Y_CBS); 114 nM in experiment [2] (setting [7]); 86 to 142 nM in experiment [2] (setting [8]); 117 ± 19 nM in experiment [3] (setting [9]); 52 ± 13 nM in experiment [3] (IC50 against P38 (Figure 9C), 0.2 nM P38, CBS assay, mean ± SEM, three independent experiments); about 100 nM in experiment [3] (IC50 against P38 (estimated from Figure 5B), 0.2 nM P38 (EC80), SY5Y_CBS, CBS assay).

Consider FTDSYSRYRKQMAVKKYLAAVL-NH2 [P6-27], for which the half-maximal inhibitory concentration (IC50) in experiment [1] (IC50 against P27 (Figure 8), 0.2 nM P27, SY5Y_CBS, 3 independent experiments) was about 100 nM; in experiment [1] (IC50 against P27, 0.2 nM P27 (EC80), mean ± SEM, n = 3, Figure 7C), 200 ± 55 nM; in experiment [2] (setting [7]) it was 3310 nM; in experiment [2] (setting [8]) it was 370 to 6250 nM; in experiment [3] (0.2 nM P38 (EC80), SY5Y_CBS, three independent experiments, Figure 11B, read-out: IC50 of P6-38 C-terminal mutants in CBS assay) it was over 1000 nM.

For the molecule FTDSYSRYRKQMAVKKYLAAVLGK-NH2 [P6-29], the IC50 is 1250 nM in experiment [2] (setting [7]), 350 to 2150 nM in experiment [2] (setting [8]) and over 500 nM in experiment [3] (setting [9]).

Take FTDSYSRYRKQMAVKKYLAAVLGKR-NH2 [P6-30]: the values for the IC50 in experiment [2] (setting [7]), in experiment [2] (setting [8]) and in experiment [3] (setting [9]) were 175 nM, 52 to 297 nM and 84 ± 26 nM, respectively.

Turning to “P27: PACAP 1-27, endogenous PAC1 agonist (HSDGIFTDSYSRYRKQMAVKKYLAAVL; ends and bridges not checked)”, the “agonist response (cAMP)” value with human PAC1hop (hPAC1) was “highly responsive to P38 and P27 with similar potency and efficacy”.

PACAP(6-27) (peptide): in experiment [4], the IC50 of inhibition of P27-stimulated (0.2 nM) cAMP elevation (CBS assay) in SY5Y CBS cells; pair that is blocked: m2 + m18 amounted to 0.1 µM and the percent to which P38-induced (0.2 nM) cAMP elevation is blocked (CBS assay) in SY5Y CBS cells, antagonist up to 10 μM; pair that is blocked: m1 + m18 was determined as 50%.

As for PACAP(6-38) (peptide), in experiment [5], the IC50 of inhibition of P27-induced cAMP elevation (CBS assay) in SY5Y CBS cells; pair that is blocked: m2 + m18 worked out at 20 nM and the IC50 of inhibition of P38-induced cAMP elevation (CBS assay) in SY5Y CBS cells; pair that is blocked: m1 + m18 was 100 nM.

“pituitary adenylate cyclase-activating polypeptide (PACAP) 1-27 (from UniProt P18509 132-158)” returned an EC80 of cAMP elevation (CBS assay) in SY5Y CBS cells in experiment [5] of 0.2 nM.

On to vasoactive intestinal peptide [VIP], for which, in experiment [6], the “agonist response / relative agonist potency” value is “VIP is a less potent agonist”; the “potency relative to P27 and P38 (times less potent)” value is given as “about 100 times”. Further, the “EC80 (approximate)” value in experiment [6] (Figure 5A) was ~ 20 nM. In experiment [6] (mean ± SEM, n = 3), the EC80 came to 20 ± 6.2 nM and the “Hill Slope” value is on record as 1.78 ± 0.35. Further, the “relative potency of PACAP and VIP” value in the experiment with HEK293_CBS cells is recorded as “the potency of PACAP was similar to VIP”. Besides, the “response relative to HEK293_CBS_hPAC1 level” value in the experiment with HEK293_CBS cells (IBMX pretreated, luminescence) is recorded as “less than 5%”. Further, the “agonist response (cAMP)” value with human PAC1hop (hPAC1) is “highly specific for activation by PACAP, compared to the related peptide VIP”.

B1: vasoactive intestinal peptide (peptide)
peptide: HSDAVFTDNYTRLRKQMAVKKYLNSILN
In the case of B1, in experiment [5], the EC80 of cAMP elevation (CBS assay) in SY5Y CBS cells is 20 nM.
